The structures appear in SMILES notation. Where a name gives a salt, the structure may show the parent alone.

Broadly, the IC50 is the concentration at which inhibition is half-maximal.

In this assay the target is T1, Recombinant human HSD17B13 enzyme (Homo sapiens, UniProt Q7Z5P4).
T1 sequence (Q7Z5P4 20-300): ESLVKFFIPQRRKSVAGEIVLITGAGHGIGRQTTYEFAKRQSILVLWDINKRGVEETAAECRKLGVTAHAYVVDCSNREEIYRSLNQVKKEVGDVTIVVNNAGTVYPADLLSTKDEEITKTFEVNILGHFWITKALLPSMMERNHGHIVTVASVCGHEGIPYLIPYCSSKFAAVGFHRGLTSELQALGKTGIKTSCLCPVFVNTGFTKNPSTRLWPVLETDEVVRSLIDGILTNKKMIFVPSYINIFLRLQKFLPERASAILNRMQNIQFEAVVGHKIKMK
The experiment in a line: HSD17b13 NAD(P)H-Glo biochemical assay. The settings on record: 50 uM estradiol, 1 mM NAD+, NAD(P)H-Glo luminescence; read-out: HSD17β13 IC50. Summed up: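 Luminescent NAD(P)H-Glo read-out, taken after 1 hour at RT, measured cofactor reduction. Substrate and cofactor were estradiol at 50 uM and NAD+ at 1 mM final, reacted with the recombinant human enzyme for 3 hours at 37° C in 20 mM Tris pH7.4, 0.002% Tween-20, 0.02% BSA. Compound was pre-incubated with enzyme for 20 minutes at RT.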
As for `CNC1CCN(c2ncc3c(-c4cc(C(F)(F)F)c(F)c(O)c4F)nn(C)c3n2)CC1` [Compound 18.29, 2,6-Difluoro-3-(1-methyl-6-(4-(methylamino)piperidin-1-yl)-1H-pyrazolo[3,4-d]pyrimidin-3-y1)-5-(trifluoromethyl)phenol], the IC50 was 100 to 1000 nM. For `O=C(NC1(CCO)CCC1)c1ccc2oc(-c3cc(C(F)(F)F)c(F)c(O)c3F)nc2c1` [Compound 1.27, 2-(2,4-Difluoro-3-hydroxy-5-(trifluoromethyl)phenyl)-N-(1-(2-hydroxyethyl)cyclobutyl)benzo[d]oxa-zole-5-carboxamide], the IC50 was in the range of 100 to 1000 nM. `Cn1nc(-c2cc(C(F)(F)F)c(F)c(O)c2F)c2cnc(N3CC4(COC4)C3)cc21` [Compound 9.12, 2,6-Difluoro-3-(1-methyl-6-(2-oxa-6-azaspiro[3.3]heptan-6-yl)-1H-pyrazolo[4,3-c]pyridin-3-yl)-5-(trifluoromethyl)phenol]: the IC50 is less than 100 nM. `CN1CCN(c2ncc3c(-c4cc(C(F)(F)F)c(F)c(O)c4F)nn(C)c3n2)CC12CC2` [Compound 18.17, 2,6-Difluoro-3-(1-methyl-6-(4-methyl-4,7-diazaspiro[2.5]octan-7-y1)-1H-pyrazolo[3,4-d]pyrimidin-3-y1)-5-(trifluoromethyl)phenol]: the IC50 was less than 100 nM. Regarding `COC1CCCN(c2ncc3c(-c4cc(C(F)(F)F)c(F)c(O)c4F)nn(C)c3n2)C1` (stereo not shown) [Compound 18.06, 2,6-Difluoro-3-(6-(3-methoxypiperidin-1-yl)-1-methyl-1H-pyrazolo[3,4-d]pyrimidin-3-yl)-5-(trifluoromethyl)phenol], the IC50 is less than 100 nM. With `Cn1cc(C2CN(c3ncc4c(-c5cc(C(F)(F)F)c(F)c(O)c5F)nn(C)c4n3)CCO2)cn1` (stereo not shown) [Compound 18.58, 2,6-Difluoro-3-(1-methyl-6-(2-(1-methyl-1H-pyrazol-4-yl)morpholino)-1H-pyrazolo[3,4-d]pyrimidin-3-y1)-5-(trifluoromethyl)phenol], the half-inhibitory concentration (IC50) was less than 100 nM. For `CN(C)C(=O)C1CN(c2cc3c(cn2)c(-c2cc(C(F)(F)F)c(F)c(O)c2F)nn3C)CCO1` (stereo not shown) [Compound 9.65, 4-(3-(2,4-Difluoro-3-hydroxy-5-(trifluoromethyl)phenyl)-1-methyl-1H-pyrazolo[4,3-c]pyridin-6-yl)-N,N-dimethylmorpholine-2-carboxamide], the IC50 was in the range of 100 to 1000 nM. With `Cn1nc(-c2cc(C(F)(F)F)c(F)c(O)c2F)c2cnc(N3CCC(C(=O)O)CC3)nc21` [Compound 18.30, 1-(3-(2,4-Difluoro-3-hydroxy-5-(trifluoromethyl)phenyl)-1-methyl-1H-pyrazolo[3,4-d]pyrimidin-6-y1)piperidine-4-carboxylic Acid], the IC50 lay in the range of 100 to 1000 nM. Consider `Cn1nc(-c2cc(C(F)(F)F)c(F)c(O)c2F)c2cnc(N3CCO[C@@H](CO)C3)nc21` [Compound 18.131, (R)-2,6-Difluoro-3-(6-(2-(hydroxymethyl)morpholino)-1-methyl-1H-pyrazolo[3,4-d]pyrimidin-3-y1)-5-(trifluoromethyl)phenol], for which the half-inhibitory concentration (IC50) was in the range of 100 to 1000 nM.

For the molecule `C[C@H]1CN(C(=O)Nc2ccccc2)CCN1c1cc2c(cn1)c(-c1cc(C(F)(F)F)c(F)c(O)c1F)nn2C` [Compound 21.02, (S)-4-(3-(2,4-Difluoro-3-hydroxy-5-(trifluoromethyl)phenyl)-1-methyl-1H-pyrazolo[4,3-c]pyridin-6-y1)-3-methyl-N-phenylpiperazine-1-carboxamide], the 50% inhibitory concentration (IC50) is less than 100 nM. With `COC1(CO)CCN(c2ncc3c(-c4cc(C(F)(F)F)c(F)c(O)c4F)nn(C)c3n2)CC1` [Compound 18.100, 2,6-Difluoro-3-(6-(4-(hydroxymethyl)-4-methoxypiperidin-1-y1)-1-methyl-1H-pyrazolo[3,4-d]pyrimidin-3-yl)-5-(trifluoromethyl)phenol], the IC50 is less than 100 nM. With `COC1CCN(c2cc3c(cn2)c(-c2cc(C(F)(F)F)c(F)c(O)c2F)nn3C)C2(CC2)C1` (stereo not shown) [Compound 9.83, 2,6-Difluoro-3-(6-(7-methoxy-4-azaspiro[2.5]octan-4-yl)-1-methyl-1H-pyrazolo[4,3-c]pyridin-3-yl)-5-(trifluoromethyl)phenol] the figure was less than 100 nM; with `Cn1nc(-c2cc(C(F)(F)F)c(F)c(O)c2F)c2cnc(N3CC4CC(C3)N4S(C)(=O)=O)nc21` [Compound 18.74, 2,6-Difluoro-3-(1-methyl-6-(6-(methylsulfony1)-3,6-diazabicyclo[3.1.1]heptan-3-yl)-1H-pyrazolo[3,4-d]pyrimidin-3-y1)-5-(trifluoromethyl)phenol], 100 to 1000 nM. With `CN(c1cc2c(cc1F)c(-c1cc(C(F)(F)F)c(F)c(O)c1F)nn2C)C1CCOCC1` [Compound 9.116, 2,6-Difluoro-3-(5-fluoro-1-methyl-6-(methyl(tetrahydro-2H-pyran-4-yl)amino)-1H-indazol-3-yl)-5-(trifluoromethyl)phenol], the IC50 was less than 100 nM. With `Cn1nc(-c2cc(C(F)(F)F)c(F)c(O)c2F)c2cnc(N3CCC(CO)CC3)nc21` [Compound 18.14, 2,6-Difluoro-3-(6-(4-(hydroxymethyl)piperidin-1-y1)-1-methyl-1H-pyrazolo[3,4-d]pyrimidin-3-y1)-5-(trifluoromethyl)phenol] the figure was less than 100 nM; with `Cn1nc(-c2cc(C(F)(F)F)c(F)c(O)c2F)c2cnc(N3CCO[C@H](c4ccccc4)C3)nc21` [Compound 18.87, (R)-2,6-Difluoro-3-(1-methyl-6-(2-phenylmorpholino)-1H-pyrazolo[3,4-d]pyrimidin-3-y1)-5-(trifluoromethyl)phenol], less than 100 nM; with `CC(C)C1(O)CCN(c2ncc3c(-c4cc(C(F)(F)F)c(F)c(O)c4F)nn(C)c3n2)CC1` [Compound 18.67, 1-(3-(2,4-Difluoro-3-hydroxy-5-(trifluoromethyl)phenyl)-1-methyl-1H-pyrazolo[3,4-d]pyrimidin-6-yl)-4-isopropylpiperidin-4-ol], less than 100 nM.

As to `Cn1nc(-c2cc(C(F)(F)F)c(F)c(O)c2F)c2cnc(N3CCN(C(=O)c4ccccn4)CC3)nc21` [Compound 18.121, (4-(3-(2,4-Difluoro-3-hydroxy-5-(trifluoromethyl)phenyl)-1-methyl-1H-pyrazolo[3,4-d]pyrimidin-6-yl)piperazin-1-yl)(pyridin-2-yl)methanone], the 50% inhibitory concentration (IC50) fell in the range of 100 to 1000 nM. On to `CN(c1cc2c(cn1)c(-c1nc(C(F)(F)F)c(F)c(O)c1F)nn2C)C1CCOCC1` [Compound 22, 3,5-Difluoro-2-(1-methyl-6-(methyl(tetrahydro-2H-pyran-4-yl)amino)-1H-pyrazolo[4,3-c]pyridin-3-yl)-6-(trifluoromethyl)pyridin-4-ol], for which the 50% inhibitory concentration (IC50) was 100 to 1000 nM. The same measure for `CS(=O)(=O)N1CCN(C(=O)c2ccc3oc(-c4cc(O)c(F)c(F)c4)nc3c2)CC1` [Compound 1.04, (2-(3,4-Difluoro-5-hydroxyphenyl)benzo[d]oxazol-5-yl)(4-(methylsulfonyl)piperazin-1-yl)methanone]: 1000 to 30000 nM; for `Cn1nc(-c2cc(C(F)(F)F)c(F)c(O)c2F)c2cnc(N3CC4(CCOCC4)C3)nc21` [Compound 9.04, 2,6-Difluoro-3-(1-methyl-6-(7-oxa-2-azaspiro[3.5]nonan-2-yl)-1H-pyrazolo[3,4-d]pyrimidin-3-yl)-5-(trifluoromethyl)phenol]: less than 100 nM; for `Cn1nccc1C1CN(c2ncc3c(-c4cc(C(F)(F)F)c(F)c(O)c4F)nn(C)c3n2)CCO1` (stereo not shown) [Compound 18.51, 2,6-Difluoro-3-(1-methyl-6-(2-(1-methyl-1H-pyrazol-5-yl)morpholino)-1H-pyrazolo[3,4-d]pyrimidin-3-y1)-5-(trifluoromethyl)phenol]: less than 100 nM. Take `COC1(CN(C)c2cc3c(cn2)c(-c2cc(C(F)(F)F)c(F)c(O)c2F)nn3C)CCC1` [Compound 9.86, 2,6-Difluoro-3-(6-(((1-methoxycyclobutyl)methyl)(methyl)amino)-1-methyl-1H-pyrazolo[4,3-c]pyridin-3-yl)-5-(trifluoromethyl)phenol]: the IC50 is less than 100 nM. For the molecule `CS(=O)(=O)N1CCN(c2ccc3oc(-c4ccc(F)c(O)c4)nc3c2)CC1` [Compound 4, 2-Fluoro-5-(5-(4-(methylsulfonyl)piperazin-1-yl)benzo[d]oxazol-2-yl)phenol], the IC50 fell in the range of 100 to 1000 nM. In the case of `Cn1nc(-c2cc(C(F)(F)F)c(F)c(O)c2F)c2ccc(N3CCOCC34CCC4)nc21` [Compound 9.41, 2,6-Difluoro-3-(1-methyl-6-(8-oxa-5-azaspiro[3.5]nonan-5-yl)-1H-pyrazolo[3,4-b]pyridin-3-yl)-5-(trifluoromethyl)phenol], the half-inhibitory concentration (IC50) was less than 100 nM.

Regarding `Cn1nc(-c2cc(C(F)(F)F)c(F)c(O)c2F)c2cnc(N3CCNC4(CCC4)C3)nc21` [Compound 20, 2,6-Difluoro-3-(1-methyl-6-(5,8-diazaspiro[3.5]nonan-8-yl)-1H-pyrazolo[3,4-d]pyrimidin-3-y1)-5-(trifluoromethyl)phenol HCl salt], the IC50 was less than 100 nM.

As to `Cn1nc(-c2cc(C(F)(F)F)c(F)c(O)c2F)c2cnc(N3CCC(C)(C)CC3)nc21` [Compound 18.108, 3-(6-(4,4-Dimethylpiperidin-1-yl)-1-methyl-1H-pyrazolo[3,4-d]pyrimidin-3-yl)-2,6-difluoro-5-(trifluoromethyl)phenol], the 50% inhibitory concentration (IC50) was less than 100 nM.

Regarding `COC1(C)CCN(c2ncc3c(-c4cc(C(F)(F)F)c(F)c(O)c4F)nn(C)c3n2)CC1` [Compound 18.61, 2,6-Difluoro-3-(6-(4-methoxy-4-methylpiperidin-1-yl)-1-methyl-1H-pyrazolo[3,4-d]pyrimidin-3-yl)-5-(trifluoromethyl)phenol], the half-maximal inhibitory concentration (IC50) was less than 100 nM.
